Each structure is given as a SMILES string. Where two headings read alike, the source gives them in different places.

One may read the inhibition as the relative decrease from the control value, in per cent. For orientation: Papp means the rate of passage across a membrane or cell layer, normalised by area and donor concentration. A lower Papp goes with poor permeation. Broadly, the IC50 is the concentration at which inhibition is half-maximal.

One series has as its target T1, AChE (Rattus norvegicus, UniProt P37136).
T1 sequence (P37136 32-614): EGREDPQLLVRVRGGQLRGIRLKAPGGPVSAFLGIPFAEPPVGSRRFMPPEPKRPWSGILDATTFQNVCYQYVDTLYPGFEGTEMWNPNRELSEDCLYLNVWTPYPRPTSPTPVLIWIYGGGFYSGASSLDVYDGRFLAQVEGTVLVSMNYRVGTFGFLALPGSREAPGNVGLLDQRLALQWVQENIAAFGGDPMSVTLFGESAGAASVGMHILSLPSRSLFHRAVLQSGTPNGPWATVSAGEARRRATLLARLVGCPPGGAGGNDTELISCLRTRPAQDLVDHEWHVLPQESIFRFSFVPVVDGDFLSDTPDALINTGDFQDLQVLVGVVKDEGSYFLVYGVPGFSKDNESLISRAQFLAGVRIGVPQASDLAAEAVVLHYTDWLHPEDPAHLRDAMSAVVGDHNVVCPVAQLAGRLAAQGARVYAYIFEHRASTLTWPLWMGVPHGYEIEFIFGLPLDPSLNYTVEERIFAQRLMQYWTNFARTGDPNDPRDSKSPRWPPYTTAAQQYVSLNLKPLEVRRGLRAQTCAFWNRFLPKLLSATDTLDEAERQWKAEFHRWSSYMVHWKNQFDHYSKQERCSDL
Briefly: biochemical. The conditions noted are these: for inhibition at 1 µM: tested at 1 μM, rat hippocampal homogenate, read-out: AChE Inhibition (%) ± SEM. The protocol: Male Wistar rats weighing 230–250 g were used. AChE activity was assessed using a colorimetric reported method with minor modifications. Hippocampal tissue was homogenized in 39 volumes of 75 mM sodium phosphate buffer (pH 7.4). A mixture of 2 mL containing the compounds assessed, acetylthiocholine iodide, and 50 μL tissue homogenate was incubated for 8 min. […] The extent of color production was measured spectrophometrically at 420 nm using Ultospec 3000 (Pharmacia Biotech, Piscataway, NJ, USA). All samples were assayed in triplicate. Results were expressed as percentages of control values.
Different concentrations of the compounds were tested for their ability to inhibit AChE activity.

Another series can be described thus: in vitro. The conditions noted are these: PAMPA. A general note: The PAMPA barrier holds no transporters, so it reflects passive diffusion.
For series [1] the following is noted: for Pe: pig, PAMPA.
Series [2] has as its system K+-evoked [3H]ACh efflux in rat hippocampal slices. Briefly: In vitro ACh release, K+-evoked [3H]ACh efflux. In kind it is cell-based.
Experimental: Male Wistar rats weighing 230–250 g were used. K^+-evoked [^3H]ACh efflux was measured as previously described [39]. Briefly, the hippocampus was removed and dissected, cut sagittally into 500 µm slices using a McIlwain tissue chopper (The Mickle Laboratory Engineering Co. Ltd., Dorking, UK). […] Fractions were collected at 3-min intervals for a total of 60 min. At 12 min (S1) and 45 min (S2) after equilibration, the slices were depolarized by changing the superfusion fluid during 6 min to a solution containing 20 mM KCl. Drugs were added 15 min before S2. Tritium content was assayed by liquid scintillation spectroscopy. S1 and S2 were calculated as K+-stimulated tritium increases over basal efflux. Results were expressed as the S2/S1 ratio.

As for `NS(=O)(=O)c1ccc(OCCCN2CCOCC2)cc1` [Compound 3], the inhibition at 1 µM on AChE was below 5%.
On the same count and under the same terms, under `O=C(Nc1cccc2ccccc12)NS(=O)(=O)c1ccc(OCCCN2CCCC2)cc1` [Compound 5] stands 25.2 ± 7.7%.
`CN(C)c1ccc(NC(=O)NS(=O)(=O)c2ccc(OCCCN3CCCC3)cc2)cc1` [Compound 6] yielded a Papp in the series “in vitro” of 0.32 ± 0.01 ×10⁻⁶ cm/s. Also, in series [1], the “PAMPA-BBB Classification” value was “CNS − (key: CNS +/−: BBB permeation uncertain: Pe (10^−6 cm/s) from 4.0 to 2.0; CNS −: low BBB permeation predicted: Pe (10^−6 cm/s < 2.0)” and the Pe is 0.32. Besides, the inhibition at 1 µM on AChE was 29.9 ± 3.63%.
With `O=C(NC(c1ccccc1)c1ccccc1)NS(=O)(=O)c1ccc(OCCCN2CCCC2)cc1` [Compound 7], the Papp at 20 h, 500 µg/mL in the series “in vitro” is 0.47 ± 0.06 ×10⁻⁶ cm/s. In addition, the “K+-evoked [3H]ACh efflux” value in series [2] is on record as “able to increase ACh release in vitro”. Further, the “PAMPA-BBB Classification” value in series [1] is given as “CNS − (key: CNS +/−: BBB permeation uncertain: Pe (10^−6 cm/s) from 4.0 to 2.0; CNS −: low BBB permeation predicted: Pe (10^−6 cm/s < 2.0)”. For the same compound, in series [1] (20 h, 500 µg/mL), the Pe amounted to 0.47. Moreover, the “AChE activity inhibition (in words)” value on AChE (0.01–10 µM, in vitro) is listed as “significantly inhibit AChE activity in a concentration-dependent manner”. Besides, on AChE (estimated from non-linear fitted dose-response curves, 0.01–10 µM), the IC50 is above 10 µM. Moreover, the inhibition at 1 µM on AChE is above 37%.

The values above are taken from PMC10815131, “Novel Pitolisant-Derived Sulfonyl Compounds for Alzheimer Disease” (International Journal of Molecular Sciences, 2024).
